Measured values published in the supplement of paper PMC11451515.

System: P12-Ichikawa
Experiment: cell viability relative to DMSO control; higher = less cytotoxic
Conditions: 48 h
Method in brief: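 Viability values are per-plate percentages of DMSO wells, with background from cell-free wells. Library compounds in DMSO were pin-dosed, in an 11-point threefold series from 47 μM to 0.79 nM, onto NOMO1 or SEM (500 cells/well) or P12-Ichikawa (1000 cells/well) leukemia cells in 1536-well plates (5 μl). Those cells had been adapted for at least four passages in each medium, and CellTiter-Glo One luminescence was read after 48 h at 37°C.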

[1] = HPLM + 10% dialyzed FBS, 0.000781 µM
[2] = HPLM + 10% dialyzed FBS, 0.00234 µM
[3] = HPLM + 10% dialyzed FBS, 0.00702 µM
[4] = HPLM + 10% dialyzed FBS, 0.0211 µM
[5] = HPLM + 10% dialyzed FBS, 0.0632 µM
[6] = HPLM + 10% dialyzed FBS, 0.19 µM
[7] = HPLM + 10% dialyzed FBS, 0.569 µM
[8] = HPLM + 10% dialyzed FBS, 1.71 µM
[9] = HPLM + 10% dialyzed FBS, 5.12 µM
[10] = HPLM + 10% dialyzed FBS, 15.4 µM
[11] = HPLM + 10% dialyzed FBS, 46.1 µM
[12] = RPMI 5 mM glucose + 10% FBS, 0.000781 µM
[13] = RPMI 5 mM glucose + 10% FBS, 0.00234 µM
[14] = RPMI 5 mM glucose + 10% FBS, 0.00702 µM
[15] = RPMI 5 mM glucose + 10% FBS, 0.0211 µM
[16] = RPMI 5 mM glucose + 10% FBS, 0.0632 µM
[17] = RPMI 5 mM glucose + 10% FBS, 0.19 µM
[18] = RPMI 5 mM glucose + 10% FBS, 0.569 µM
[19] = RPMI 5 mM glucose + 10% FBS, 1.71 µM
[20] = RPMI 5 mM glucose + 10% FBS, 5.12 µM
[21] = RPMI 5 mM glucose + 10% FBS, 15.4 µM
[22] = RPMI 5 mM glucose + 10% FBS, 46.1 µM
[23] = RPMI 5 mM glucose + 10% dialyzed FBS, 0.000781 µM
[24] = RPMI 5 mM glucose + 10% dialyzed FBS, 0.00234 µM
[25] = RPMI 5 mM glucose + 10% dialyzed FBS, 0.00702 µM
[26] = RPMI 5 mM glucose + 10% dialyzed FBS, 0.0211 µM
[27] = RPMI 5 mM glucose + 10% dialyzed FBS, 0.0632 µM
[28] = RPMI 5 mM glucose + 10% dialyzed FBS, 0.19 µM
[29] = RPMI 5 mM glucose + 10% dialyzed FBS, 0.569 µM
[30] = RPMI 5 mM glucose + 10% dialyzed FBS, 1.71 µM
[31] = RPMI 5 mM glucose + 10% dialyzed FBS, 5.12 µM
[32] = RPMI 5 mM glucose + 10% dialyzed FBS, 15.4 µM
[33] = RPMI 5 mM glucose + 10% dialyzed FBS, 46.1 µM

Row | Structure (SMILES) | cell viability [1] [%] | cell viability [2] [%] | cell viability [3] [%] | cell viability [4] [%] | cell viability [5] [%] | cell viability [6] [%] | cell viability [7] [%] | cell viability [8] [%] | cell viability [9] [%] | cell viability [10] [%] | cell viability [11] [%] | cell viability [12] [%] | cell viability [13] [%] | cell viability [14] [%] | cell viability [15] [%] | cell viability [16] [%] | cell viability [17] [%] | cell viability [18] [%] | cell viability [19] [%] | cell viability [20] [%] | cell viability [21] [%] | cell viability [22] [%] | cell viability [23] [%] | cell viability [24] [%] | cell viability [25] [%] | cell viability [26] [%] | cell viability [27] [%] | cell viability [28] [%] | cell viability [29] [%] | cell viability [30] [%] | cell viability [31] [%] | cell viability [32] [%] | cell viability [33] [%]
1 | COc1cc([C@@H]2c3cc4c(cc3[C@@H](O[C@@H]3O[C@@H]5CO[C@@H](c6cccs6)O[C@H]5[C@H](O)[C@H]3O)[C@H]3COC(=O)[C@H]23)OCO4)cc(OC)c1O | 89.9 | 91.6 | 92.9 | 93 | 90.1 | 88.2 | 83 | 9.83 | 71.4 | 6.48 | 6.62 | 77.3 | 87.9 | 89.2 | 95.8 | 83.3 | 80.1 | 68 | 6.52 | 55.9 | 5.89 | 4.88 | 84.4 | 91.5 | 88.5 | 82.3 | 82.7 | 74.6 | 73.7 | 8.53 | 59 | 6.51 | 4.64
2 | CO[C@@H]1C(N(C)C(=O)c2ccccc2)C[C@H]2O[C@]1(C)n1c3ccccc3c3c4c(c5c6ccccc6n2c5c31)C(=O)NC4=O (stereo partly drawn) | 84.9 | 88.1 | 93.3 | 92.3 | 91 | 97.7 | 99 | 91.2 | 90 | 46 | 25.9 | 78.8 | 87.8 | 88.7 | 90.9 | 97.4 | 87 | 84.8 | 90.2 | 73.4 | 27.1 | 32.5 | 78.9 | 84.4 | 91 | 91.9 | 82.9 | 90.1 | 83 | 84.8 | 87.8 | 23.2 | 32.7
3 | CO[C@H]1C[C@@H]2CC[C@@H](C)[C@@](O)(O2)C(=O)C(=O)N2CCCC[C@H]2C(=O)O[C@H]([C@H](C)C[C@@H]2CC[C@@H](OCCO)[C@H](OC)C2)CC(=O)[C@H](C)/C=C(/C)[C@@H](O)[C@@H](OC)C(=O)[C@H](C)C[C@H](C)\C=C/C=C\C=C/1C | 101 | 109 | 104 | 94.1 | 99.9 | 98.9 | 96.5 | 86.6 | 76.7 | 44.7 | 50.3 | 82.5 | 94 | 89.6 | 79.2 | 77.8 | 77.7 | 68.8 | 70.6 | 51.8 | 25.7 | 26.1 | 90.8 | 99.1 | 93.7 | 84.9 | 85.8 | 87.1 | 80.5 | 78.1 | 51.4 | 33.4 | 33.9
4 | CCNc1cc(NC2CCC(O)CC2)nc(Nc2ccc3c(ccn3Cc3ccccc3)c2)n1 (stereo not drawn) | 112 | 117 | 117 | 126 | 127 | 128 | 126 | 128 | 124 | 120 | 109 |  |  |  |  |  |  |  |  |  |  |  |  |  |  |  |  |  |  |  |  |  | 
5 | Nc1nc(OCc2ccccc2)c2nc[nH]c2n1 | 108 | 110 | 117 | 115 | 120 | 120 | 120 | 118 | 114 | 112 | 113 | 97.9 | 107 | 120 | 117 | 124 | 111 | 114 | 118 | 120 | 120 | 111 | 105 | 114 | 119 | 117 | 121 | 117 | 122 | 120 | 121 | 120 | 119
6 | CCN(CC)CCN1C(=O)\C(=N/C2=CC=CC=C12)CC3=CC=C(OC)C=C3 | 107 | 111 | 110 | 114 | 119 | 114 | 120 | 113 | 109 | 114 | 113 | 93.6 | 113 | 109 | 119 | 127 | 121 | 130 | 119 | 111 | 114 | 119 | 107 | 112 | 118 | 107 | 112 | 109 | 109 | 111 | 104 | 96.5 | 96.6
7 | NC(=O)Nc1cc(-c2ccc(CN3CCOCC3)cc2)sc1C(N)=O | 121 | 119 | 126 | 117 | 110 | 19.7 | 8.91 | 8.7 | 7.42 | 7.74 | 17.1 | 104 | 107 | 110 | 111 | 94.9 | 32.1 | 11.5 | 8.89 | 8.7 | 10 | 18.6 | 117 | 114 | 121 | 115 | 120 | 26.9 | 17.8 | 19.4 | 19 | 21.2 | 33.4
8 | CCCCCCCCCCCCCCCCCCOP(=O)([O-])OC1CC[N+](C)(C)CC1 | 112 | 111 | 114 | 113 | 111 | 109 | 121 | 114 | 106 | 104 | 112 | 104 | 106 | 99.9 | 87 | 107 | 111 | 113 | 124 | 103 | 105 | 95.3 | 105 | 110 | 126 | 78.2 | 111 | 110 | 115 | 121 | 110 | 105 | 113
9 | CCN1C[C@]2(OC(=O)c3ccccc3NC(C)=O)CC[C@H](OC)[C@@]34[C@@H]2C[C@@H]([C@@H]13)[C@@]1(O)C[C@H](OC)[C@H]2C[C@@H]4[C@]1(O)[C@H]2OC | 91.8 | 109 | 110 | 113 | 114 | 109 | 106 | 111 | 103 | 106 | 108 | 105 | 109 | 116 | 104 | 113 | 111 | 119 | 108 | 99.1 | 105 | 114 | 103 | 111 | 115 | 110 | 117 | 106 | 115 | 110 | 104 | 107 | 102
10 | COc1ccc(Nc2cc(-c3cnc(N)nc3)nc(N3CCOCC3)n2)cn1 | 98.7 | 101 | 98.4 | 102 | 103 | 94.9 | 96.7 | 89.9 | 63.7 | 71.1 | 71.9 | 89.9 | 90.9 | 93.9 | 90.7 | 100 | 87.7 | 89.5 | 79.3 | 52.2 | 54.1 | 56.6 | 93.7 | 90.4 | 95.8 | 98.7 | 102 | 98.6 | 86.3 | 88.1 | 50.4 | 54.1 | 51.7
11 | COC[C@H]1OC(=O)C2=COC3=C2[C@@]1(C)\C4=C(\[C@@H]5CC[C@H](O)[C@@]5(C)C[C@H]4OC(C)=O)C3=O | 105 | 120 | 85.6 | 117 | 120 | 123 | 127 | 123 | 121 | 109 | 68.2 | 104 | 121 | 67.4 | 118 | 114 | 129 | 128 | 124 | 117 | 101 | 81.6 | 100 | 115 | 84.9 | 120 | 131 | 126 | 132 | 130 | 116 | 88.8 | 58.9
12 | Cc1ccc(-c2ncn(-c3ccc(Nc4nccc(-c5cccc(N6CCOCC6)c5)n4)cc3)n2)cn1 | 93.9 | 94.5 | 94.8 | 98.2 | 96.1 | 90.7 | 5.93 | 5.41 | 5.42 | 4.29 | 4.16 | 92.2 | 92.8 | 90.2 | 89.8 | 94.5 | 83.6 | 3.59 | 3.74 | 2.21 | 3.15 | 3.43 | 82.2 | 87.5 | 80.8 | 86.6 | 87.6 | 96.3 | 3.87 | 3.59 | 2.81 | 2.93 | 2.94
13 | CN(C)C[C@@H]1CC[N]2C=C(C3=C2C=CC=C3)C/4=C(/C(=O)NC4=O)C5=C[N](CCO1)C6=C5C=CC=C6 | 99.6 | 98.3 | 100 | 106 | 105 | 110 | 107 | 100 | 101 | 97.5 | 30.7 | 92.9 | 94.8 | 100 | 98.6 | 108 | 104 | 95.7 | 96.2 | 97.6 | 83.4 | 55.3 | 110 | 106 | 108 | 109 | 103 | 102 | 114 | 117 | 105 | 93.7 | 58.9
14 | CC(C)NCC(O)c1ccc(NS(C)(=O)=O)cc1 (stereo not drawn) | 104 | 113 | 96.3 | 105 | 117 | 111 | 104 | 108 | 98 | 102 | 100 | 109 | 102 | 99.9 | 105 | 97.9 | 110 | 106 | 112 | 101 | 98.7 | 101 | 101 | 102 | 100 | 98.6 | 97 | 94.3 | 99.2 | 91 | 91 | 99.2 | 96.6
15 | NCC(=O)Nc1ccc(-n2nc(C(F)(F)F)cc2-c2ccc3c(ccc4ccccc43)c2)cc1 |  |  |  |  |  |  |  |  |  |  |  | 24.1 | 123 | 137 | 133 | 125 | 120 | 105 | 106 | 92.1 | 79.2 | 79 |  |  |  |  |  |  |  |  |  |  | 
16 | CCCCN(CCCC)C(=O)CN1C[C@H](c2ccc3c(c2)OCO3)[C@@H](C(=O)O)[C@@H]1c1ccc(OC)cc1 | 112 | 111 | 113 | 70.2 | 116 | 114 | 107 | 114 | 106 | 104 | 88.4 | 107 | 122 | 115 | 61.9 | 112 | 122 | 123 | 118 | 36.1 | 105 | 99.9 |  |  |  |  |  |  |  |  |  |  | 
